Laboratory results published in patent publication US20180103638A1, “SOIL TREATMENT” (PeroxyChem LLC, priority 2016, published 2018).
“Also recorded” adds a separate entry of the source. Read-outs that look alike come from different tables or passages of the source.

How the values were obtained:
Bacillus mycoides = format: cell-based; details: treated four days, soil
Description: (§1) Test method: A peracetic acid stock solution containing 5% PAA and 22% H2O2 (VigorOx® from PeroxyChem, LLC) was used for methods that specified 1750 ppm PAA. A peracetic acid stock solution containing 15% PAA and 10% H2O2 (VigorOx SP-15) was used for methods that specified 3525 ppm PAA. A stock solution of formaldehyde (37% in 10-15% methanol) was used to prepare a 1% aqueous solution of formaldehyde (with about 0.3% methanol).
(§2) Solutions were applied as the soil drench with an application volume of 12 kL/ha. The Test Medium was: pasteurized 50:50 Loamy sand or pasteurized sand. The efficacy of PAA was evaluated in three different Greenhouse Test Assays: 1) the Tomato Root-knot Galling Index Assay using the nematode species Meloidogyne incognita and Meloidogyne hapla; 2) the Root-knot Nematode Egg Hatch Assay using the nematode species Meloidogyne incognita and Meloidogyne hapla; and 3) assay of levels of soil bacteria using Bacillus mycoides.
Soil was inoculated with Bacillus mycoides, incubated for five days and then treated with formaldehyde or […] for four days. Bacteria were collected from soil and their levels were evaluated based on colony forming units.

[1] = system: Meloidogyne incognita and Meloidogyne hapla; format: in vivo
Description: as §1, §2

[2] = system: Meloidogyne incognita and Meloidogyne hapla; assay: Root-knot Nematode Egg Hatch Assay (soil drench); format: in vivo; details: for % Egg Hatching: Example 3, 1 ml/cm^2, sand-loam soil, relative to distilled water control (100)
Description: as §1, §2
The Root-knot Nematode Egg Hatch Assay was carried out essentially as follows. Eggs were collected from roots of infected tomato plants. To release the eggs, the egg masses were placed in a solution of sodium hypochlorite and manually shaken. The solution was centrifuged and the eggs washed with distilled water. Eggs were kept in the dark until needed for the experiments and used in the same day of collection. The experiments were performed in pots filled with pasteurized soil inoculated with about several thousands of individual eggs and then drenched with each treatment solution and controls. The treated soils were covered and incubated for the time periods indicated below. Following the incubation period, the soils were transferred to collect hatched J2 (second stage juveniles). The collected material was observed under the microscope and the number of J2 counted.
Seedlings were inoculated and cultured in pasteurized Pemberton soil for 14 days. Seedlings were then treated with either formaldehyde, 1750 ppm PAA or 3525 ppm PAA for 13 days. Nematode eggs were extracted from infected roots and their ability to hatch was evaluated.
Test method: A peracetic acid stock solution containing 15% PAA and 10% H2O2 (VigorOx SP-15) was used for methods that specified 3750, 5000, 7500, 10000 ppm PAA. Capryleth-9 carboxylic acid (C9CA) was used at concentrations of 5000 and 10000 ppm. A stock solution of formaldehyde (37% in 10-15% methanol) was used to prepare a 1% aqueous solution of formaldehyde. The final methanol concentration was about 0.3%.
Solutions were applied as a soil drench with an application volume of 12 kL/ha. The Test Medium was pasteurized Pemberton loamy soil, sand or pasteurized sand. The efficacy of PAA was evaluated with the Root-Knot Nematode Egg Hatch Assay using the nematode species Meloidogyne incognita and Meloidogyne hapla.
Seedlings were inoculated and cultured for 22 days and then treated for 21 days with either PAA alone at various concentrations, C9CA alone at various concentrations, or a combination of PAA and C9CA. Nematode eggs were extracted from infected roots and their ability to hatch was evaluated.
Test method: A peracetic acid stock solution containing 15% PAA and 10% H2O2 (VigorOx SP-15) was used for methods that specified 3500 and 20,000 ppm PAA. Capryleth-9 carboxylic acid (C9CA) was used at concentrations of 250 and 10000 ppm.
Solutions were applied as a soil drench with an application volume of 1 ml/cm^2. The Test Medium was pasteurized sand-loam soil. The efficacy of PAA was evaluated with the Root-knot Nematode Egg Hatch Assay using the nematode species Meloidogyne incognita and Meloidogyne hapla.
The viability of the root-knot nematodes eggs used for each set of experiments in this example was also evaluated. Eggs were incubated with the different solutions in glass dishes in the dark at 25° C. They were observed daily under the microscope to confirm that the eggs were viable and able to hatch in water after 18 hr/24 hr of incubation.

[3] = system: Aspergillus niger ATCC 16404; assay: Fungicidal assay in soil; format: cell-based
Experimental: Test method: A peracetic acid stock solution containing 15% PAA and 10% H2O2 (VigorOx SP-15) was used for methods that specified 3500 and 20,000 ppm PAA. Capryleth-9 carboxylic acid (C9CA) was used at concentrations of 5000 and 30,000 ppm.
Solutions were applied as a soil drench with an application volume of 1.5 ml/cm^2. The Test Medium was pasteurized Pemberton soil. The spore inoculum was Aspergillus niger ATCC 16404. The fungicidal activity of the compositions was evaluated as follows: Soil was pasteurized to remove background microbial content. The soil was the filled into test cells. Aspergillus niger ATCC 16404 was grown on Potato Dextrose Agar (PDA) plates for 5 days at 35° C. A culture for test was prepared by washing a plate with Butterfield's buffer, grinding in a sterile tissue grinder, and filtering through a cell filter to remove hyphae and debris. The suspension was diluted 1:100 in Butterfield's buffer and was added to the soil as the inoculum. The inoculum was enumerated on Petrifilm APC to determine the titer. In order to analyze antimicrobial efficacy following the treatments, soil was scooped from the cell and weighed into a sterile plastic cup. Sterile deionized water was added to the cup using a serological pipette. The cups were then capped, shaken to suspend soil, and vortexed at maximum speed using the lab vortex. The samples were allowed to settle for several seconds, and then 2 mL of fluid was removed from the tube. One ml of the removed fluid was diluted in 9 mL Butterfield's buffer. The remaining removed fluid was plated onto Petrifilm Petrifilm YM. The diluted sample was further serially diluted and plated to 10^−3 on YM. The plates were all incubated at 35±2° C. for 3 to 4 days and colonies were counted.

[4] = system: Bacillus subtilis ATCC 19659; assay: Sporicidal assay in soil; format: cell-based; details: 3525 ppm PAA; 1 hour, 2 and 7 days treatment
Experimental: Test method: A peracetic acid stock solution containing 15% PAA and 10% H2O2 (VigorOx SP-15) was used for methods that specified 3525 ppm PAA. Deionized water was used as a control.
Solutions were applied as the soil drench with an application volume of 1.5 ml/cm^2. The Test Medium was pasteurized Pemberton soil. The spore inoculum was Bacillus subtilis ATCC 19659. Spores were counted as follows: Soil was pasteurized to remove background microbial content. The soil was distributed into test cells. Concentrated Bacillus subtilis ATCC 19659 spore suspension was diluted in Butterfield's buffer and used as the inoculum in this test. For titer determination, the inoculum was diluted in Butterfield's buffer and plated on Petrifilm APC. In order to test for antimicrobial efficacy following treatments, soil was scooped from the cell and measured into a sterile plastic centrifuge tube. Deionized water was then added to each soil sample. The tubes were then capped, shaken to suspend soil, and vortexed at maximum speed using the lab vortex. The samples were allowed to settle for several seconds, and then 2 mL of fluid was removed from the tube. One ml of the removed sample was diluted in 9 mL Butterfield's buffer. The remainder of the removed sample was plated onto Petrifilm APC. […] The plates were all incubated at 30±2° C. for 2-5 days and then colonies on the plates were counted.

C=O [Formaldehyde, formaldehyde, reference compound]
% Reduction in population (CFU's) (Bacillus mycoides; at 1%): 42.5% | Root-knot Galling Index ([1]; in vivo): 2 | % Reduction of J2 Population ([2]; in vivo): 60% | % Reduction of J2 population ([2]; in vivo): 78%

CC(=O)OO [PAA, peracetic acid]
% Reduction in population (CFU's) (Bacillus mycoides; 1750 ppm PAA): 47.5% | Log10 CFU ([3]; 3500 ppm PAA, 1 hour): 3.2 Log10 CFU | Log10 CFU ([3]; 3500 ppm PAA, 24 hours): 0.0 Log10 CFU | Log10 Reduction ([3]; 3500 ppm PAA, 24 hours): completely eliminated; also recorded: Total kill | elimination of Aspergillus niger ([3]; 7000 ppm PAA, one hour of treatment): complete elimination | Log10 CFU ([3]; 7500 ppm PAA, 1 hour): 0.0 Log10 CFU | Log10 Reduction ([3]; 7500 ppm PAA, 1 hour): Total kill | Log10 CFU ([3]; 7500 ppm PAA, 24 hours): 0.0 Log10 CFU | Log10 Reduction ([3]; 7500 ppm PAA, 24 hours): Total kill | Root-knot Galling Index ([1]; 1750 ppm PAA, soil drench 12 kL/ha, treated 27 days, scale 0=no galling to 10=severe galling): only a modest reduction | bacterial spores capable of giving rise to viable colonies recovered [4]: no bacterial spores capable of giving rise to viable colonies were recovered | % Reduction of J2 population ([2]; Example 1, 1750 ppm PAA, 12 kL/ha, treated 13 days, Pemberton soil): did not reduce | % Reduction of J2 population ([2]; Example 1, 3525 ppm PAA, 12 kL/ha, treated 13 days, Pemberton soil): 51% | % Reduction of J2 Population ([2]; Example 2, 5000 ppm PAA, 12 kL/ha, 21 days after treatment): 20% | % Reduction of J2 Population ([2]; Example 2, 10000 ppm PAA, 12 kL/ha, 21 days after treatment): 28% | % Egg Hatching ([2]; 20000 ppm PAA): 53%

Capryleth-9 Carboxylic Acid [C9CA]
% Reduction of J2 Population ([2]; Example 2, 10000 ppm C9CA, 12 kL/ha, 21 days after treatment): 10% | % Egg Hatching ([2]; 250 ppm C9CA): 66%
